Where “and” joins values, the source holds several entries; their conditions need not be identical. Equal entries are not always repeated.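 These data come from cells grown in 96-well plates and exposed to compound for 48 hours at five concentrations. The concentration for 50% growth inhibition is given as GI50. At the TGI there is no net growth.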
What was measured:
Assay in all cases: NCI tumour cell line growth inhibition, 48 h
A549 NSCLC = tested on: A549 NSCLC
HOP-62 NSCLC = tested on: HOP-62 NSCLC
MOLT-4 leukemia = tested on: MOLT-4 leukemia
NCI-H23 lung = tested on: NCI-H23 lung
OVCAR-8 ovarian = tested on: OVCAR-8 ovarian
SK-MEL-28 melanoma = tested on: SK-MEL-28 melanoma
SNB-75 CNS = tested on: SNB-75 CNS
SR leukemia = tested on: SR leukemia
NCI-H522 lung = tested on: NCI-H522 lung
SNB-19 CNS = tested on: SNB-19 CNS

| SMILES | TGI (A549 NSCLC) | TGI (HOP-62 NSCLC) | TGI (MOLT-4 leukemia) | TGI (NCI-H23 lung) | TGI (OVCAR-8 ovarian) | TGI (SK-MEL-28 melanoma) | TGI (SNB-75 CNS) | TGI (SR leukemia) [µM] | GI50 (MOLT-4 leukemia) | TGI (NCI-H522 lung) | TGI (SNB-19 CNS) | GI50 (A549 NSCLC) | GI50 (NCI-H522 lung) | GI50 (OVCAR-8 ovarian) | GI50 (SK-MEL-28 melanoma) | GI50 (SNB-75 CNS) | GI50 (SR leukemia) [µM] | GI50 (HOP-62 NSCLC) | GI50 (NCI-H23 lung) | GI50 (SNB-19 CNS) |
| --- | --- | --- | --- | --- | --- | --- | --- | --- | --- | --- | --- | --- | --- | --- | --- | --- | --- | --- | --- | --- |
| COCCOCC(=O)N(CCn1ccc(NC(c2ccccc2)(c2ccccc2)c2ccccc2)nc1=O)CCn1cnc2nc(N)[nH]c(=O)c21 | > 100 µM | > 100 µM | > 100 µM | > 100 µM | > 100 µM | > 100 µM | > 100 µM | > 100 | – | – | – | – | – | – | – | – | – | – | – | – |
| COC1=Nc2ccccc2S(=O)(=O)C=C1 | 36.9 µM | > 100 µM | 2.47 µM | 21.4 µM | 19.5 µM | 19.9 µM | 17.5 µM | – | 0.489 µM and 0.44 µM | 2.81 µM | 56.7 µM | – | – | – | – | – | – | – | – | – |
| CC(=O)OCC1O[C@@H]([S-])C(OC(C)=O)[C@H](OC(C)=O)[C@@H]1OC(C)=O.[Au+].c1ccc(CN2[CH-]N(Cc3ccccc3)C(c3ccccc3)=C2c2ccccc2)cc1 | 21.4 µM | – | 9.47 µM | – | 7.38 µM | 3.21 µM | 2.68 µM | 7.8 | 3.06 µM | 3.66 µM | – | 3.81 µM | 1.58 µM | 2.61 µM | 1.64 µM | 1.37 µM | 0.663 | – | – | – |
| N#CC1(C=O)c2ccccc2C=CN1C(=O)c1ccccc1 (stereo not given) | > 100 µM | – | 44.9 µM | > 100 µM | > 100 µM | > 100 µM | 66.9 µM | 66.5 | – | > 100 µM | > 100 µM | – | – | – | – | – | – | – | – | – |
| COc1ccc(CNc2nc3c(NC(C)=O)cc(C(F)(F)F)cc3nc2-c2ccccc2)cc1OC | > 100 µM | > 100 µM | > 100 µM | > 100 µM | > 100 µM | > 100 µM | 4.48 µM | – | – | 23.5 µM | > 100 µM | – | – | – | – | – | – | – | – | – |
| C=C(C)[C@@H]1CC[C@]2(COC3CCCCO3)CC[C@]3(C)[C@H](CC[C@@H]4[C@@]5(C)C=C(C=O)C(=O)C(C)(C)[C@@H]5CC[C@]43C)[C@@H]12 (stereo not given in full) | 3.15 µM | 3.19 µM | 29.9 µM | 3.63 µM | 3.86 µM | 2.2 µM | – | 6.78 | 1.03 µM | 2.86 µM | 2.89 µM | 1.56 µM | 1.38 µM | 1.49 µM | 0.734 µM | – | 1.52 | 1.75 µM | 1.62 µM | 1.35 µM |
| CC(=O)[O-].O=C([CH-]C(=O)c1ccccc1)c1ccccc1.O=C([CH-]C(=O)c1ccccc1)c1ccccc1.[Y+3] | 34.3 µM | 13.4 µM | 32.3 µM | 11.1 µM | 20.6 µM | 39 µM | 7.42 µM | – | 2.91 µM | 6.06 µM | 64.7 µM | 10.3 µM | 1.58 µM | 3.04 µM | 8.34 µM | 3.1 µM | – | 2.31 µM | 2.2 µM | 6.17 µM |
| O=C(c1ccccc1)c1nc2ccc(C(F)(F)F)cc2[n+]([O-])c1C(F)(F)F | > 100 µM | > 100 µM | 73.7 µM | > 100 µM | > 100 µM | > 100 µM | > 100 µM | – | 23 µM | 79 µM | > 100 µM | 26 µM | 24.7 µM | 38.7 µM | 58.8 µM | 37.1 µM | – | 59.6 µM | 29.1 µM | 71.5 µM |
| c1ccc(COCC2OC3c4ccccc4COC3C2OCc2ccccc2)cc1 (stereo not given) | > 100 µM | – | > 100 µM | > 100 µM | > 100 µM | > 100 µM | > 100 µM | > 100 | – | – | > 100 µM | – | – | – | – | – | – | – | – | – |
| COc1ccc(-c2ccc(/C=N/n3c(C)nn(CN4CCN(C)CC4)c3=S)o2)c([N+](=O)[O-])c1 | > 100 µM | > 100 µM | 61.3 µM | 92.5 µM | – | > 100 µM | – | – | 20.5 µM | > 100 µM | > 100 µM | 60.8 µM | 65 µM | – | 50 µM | – | – | 32.9 µM | 26.1 µM | 58.3 µM |
| COc1cc(-c2cc(=O)c3cc(C)c(C)c(C(=O)O)c3o2)cc(OC)c1OC | > 100 µM | > 100 µM | > 100 µM | > 100 µM | > 100 µM | > 100 µM | 55.9 µM | – | – | > 100 µM | > 100 µM | – | – | – | – | – | – | – | – | – |
| CC/C(C)=C1\OC(=O)C(C)C(O)C(Cc2cccnc2)NC(=O)C(NC(=O)c2ncccc2O)C(C)OC1=O (stereo not given) | > 100 µM | > 100 µM | > 100 µM | > 100 µM | > 100 µM | > 100 µM | > 100 µM | > 100 | – | – | > 100 µM | – | – | – | – | – | – | – | – | – |
| Cc1c(NC(=O)OC[C@@H]2COCCN2)cn2ncnc(Nc3ccc4c(cnn4Cc4cccc(F)c4)c3)c12 | > 10 µM and 21.5 µM | > 10 µM and 24.9 µM | > 10 µM and 24.1 µM | > 10 µM and 26.4 µM | > 10 µM and 28.7 µM | > 10 µM and 21.4 µM | > 10 µM and 30.9 µM | – | 7.63 µM and 7.76 µM | > 10 µM and 17.4 µM | > 10 µM and 23.2 µM | > 10 µM and 8.26 µM | > 10 µM and 2.16 µM | > 10 µM and 8.88 µM | > 10 µM and 7.04 µM | 8 µM and 7.09 µM | – | > 10 µM and 11.5 µM | > 10 µM and 11.9 µM | > 10 µM and 9.04 µM |
| O=C(O)C1(Cc2cccc(Nc3nccs3)n2)CCC(Oc2cccc(Cl)c2F)CC1 (stereo not given) | > 60 µM | 56.2 µM | 63.8 µM | 34.5 µM | > 100 µM | > 65.2 µM | 62.2 µM | 50.3 | 15.7 µM | – | 73.9 µM | 5.8 µM | – | 18.9 µM | 21.2 µM | 11 µM | 0.419 | 6.77 µM | 12.9 µM | 20 µM |
| COC12CC(=O)C(C(C)=O)=C(O)C1(C)c1c(OC(C)=O)c(C)c(O)c(C(C)=O)c1O2 (stereo not given) | > 100 µM | 95.8 µM | > 100 µM | 31.3 µM | > 100 µM | > 100 µM | 80.6 µM | > 100 | – | – | > 100 µM | – | – | – | – | – | – | – | – | – |
| CC(=O)OC1CC2C(C)(C)C(=O)C=CC2(C)C2CCC3(C)C(c4ccoc4)OC(=O)C4OC43C12C (stereo not given) | 86.9 µM | 87 µM | 76.4 µM | 41.5 µM | 53.9 µM | > 100 µM | > 100 µM | – | – | 19.8 µM | > 100 µM | – | – | – | – | – | – | – | – | – |
| COc1ccc(Cn2cc3c(c2-c2cc(OC)c(OC)c(OC)c2)CCc2cnoc2-3)cc1[N+](=O)[O-] | > 100 µM | > 100 µM | > 100 µM | > 30.3 µM | > 100 µM | > 100 µM | – | – | 1.4 µM | 1.64 µM | > 100 µM | 1 µM | 0.294 µM | 3.35 µM | 3.39 µM | 0.849 µM | – | 2.85 µM | 1.46 µM | 1.87 µM |
